In PubChem BioAssay AID1259408 (Genetic Toxicology Data Bank (GENE-TOX), 2018):
The source made the active and inactive calls. No rule for the calls is given here.

Test system: GENE-TOX genotoxicity assays, various organisms and cells
Assay: GENE-TOX mutagenicity studies
Text: GENE-TOX provides genetic toxicology (mutagenicity) test data from expert peer review of open scientific literature for more than 3,000 chemicals from the United States Environmental Protection Agency (EPA). GENE-TOX was established to select assay systems for evaluation, review data in the scientific literature, and recommend proper testing protocols and evaluation procedures for these systems.
GENE-TOX covers the years 1991 - 1998. It is no longer updated.
This is an archive assay for GENE-TOX mutagenicity studies.

[1] = Species/Cell Type: Salmonella typhimurium (one or more of the five standard strains: TA98, TA100, TA1535, TA1537, and TA1538), Assay Type: Histidine reverse gene mutation, Ames assay, Assay Code: SAL+*, Activation: With metabolic activation, Evaluation Type: Evaluation A (Pre-1980)
[2] = Species/Cell Type: Human, Assay Type: Sister-chromatid exchange (SCE) in vitro, Assay Code: SC1T, Evaluation Type: Evaluation B (Post-1980)
[3] = Species/Cell Type: Drosophila melanogaster, Assay Type: Aneuploidy, partial sex chromosome loss, chromosome aberrations, Assay Code: DAPT, Evaluation Type: Evaluation A (Pre-1980)
[4] = Species/Cell Type: Drosophila melanogaster, Assay Type: Sex-linked recessive lethal gene mutation, Assay Code: SRL+, Evaluation Type: Evaluation A (Pre-1980)
[5] = Species/Cell Type: Neurospora crassa, Assay Type: Forward gene mutation, Assay Code: NEF+, Evaluation Type: Evaluation A (Pre-1980)

For `S=C1SSC2=NCCN12`, the mutagenic call (Species/Cell Type: Bacillus subtilis (H17 vs M45), Assay Type: Rec-assay, spot test, DNA effects (bacterial DNA repair), Assay Code: REW+, Evaluation Type: Evaluation A (Pre-1980)) was “active; positive”, the mutagenic call (Species/Cell Type: Human lymphocytes, Assay Type: Sister-chromatid exchange (SCE) in vitro, Assay Code: SCL+, Evaluation Type: Evaluation B (Post-1980)) was “active; positive” and the mutagenic call (Species/Cell Type: Human, Assay Type: Sister-chromatid exchange (SCE) in vitro, Assay Code: SC1+, Evaluation Type: Evaluation B (Post-1980)) was “active; positive”.

With `C=C1C/C(=C/C)C(=O)O[C@@H]2CCN3CC=C(COC(=O)[C@]1(C)O)[C@H]23` the mutagenic call (Species/Cell Type: Nonhuman, Assay Type: Sister-chromatid exchange (SCE) in vitro, Assay Code: SC2+D, Dose Response: With dose response, Evaluation Type: Evaluation B (Post-1980)) was “active; positive”.

With `CC(=O)Nc1ccc([C@@H]2O[C@H]2c2ccccc2)cc1` the mutagenic call (Species/Cell Type: Salmonella typhimurium (one or more of the five standard strains: TA98, TA100, TA1535, TA1537, and TA1538), Assay Type: Histidine reverse gene mutation, Ames assay, Assay Code: SALT, Evaluation Type: Evaluation A (Pre-1980)) was “no conclusion”.

`COc1cc2c3c(cc(C)c2c2ccccc12)C(=O)CC3` was tested, and the mutagenic call [1] was “active; positive”.

In the case of `CC(C)C[C@H](NC(=O)N[C@H](C(=O)N[C@@H](CCC(N)=O)C(=O)N[C@@H](C)C=O)[C@@H]1CCNC(N)=N1)C(=O)O`, the mutagenic call [2] is reported as “no conclusion” and the mutagenic call (Species/Cell Type: Nonhuman, Assay Type: Sister-chromatid exchange (SCE) in vitro, Assay Code: SC2T, Evaluation Type: Evaluation B (Post-1980)) is reported as “no conclusion”.

`O=C1C(N2CC2)=C(N2CC2)C(=O)C(N2CC2)=C1N1CC1` was tested, and the mutagenic call [3] was “no conclusion”, the mutagenic call (Species/Cell Type: Drosophila melanogaster, Assay Type: Aneuploidy, whole sex chromosome loss, chromosome aberrations, Assay Code: DAC+M, Evaluation Type: Evaluation A (Pre-1980)) was “active; positive” and the mutagenic call [4] was “active; positive”. The mutagenic call [5] was “active; positive” and the mutagenic call (Species/Cell Type: Neurospora crassa, Assay Type: Reverse gene mutation, Assay Code: NER+, Evaluation Type: Evaluation A (Pre-1980)) was “active; positive”.

With `CN(C)N=Nc1c(Cl)cc(Cl)cc1Cl` the mutagenic call [3] was “no conclusion”, the mutagenic call (Species/Cell Type: Drosophila melanogaster, Assay Type: Aneuploidy, whole sex chromosome loss, chromosome aberrations, Assay Code: DACT, Evaluation Type: Evaluation A (Pre-1980)) was “no conclusion” and the mutagenic call [4] was “active; positive”. The mutagenic call (Species/Cell Type: Mammalian polychromatic erythrocytes, Assay Type: Micronucleus test, chromosome aberrations, Assay Code: MNT+, Evaluation Type: Evaluation A (Pre-1980)) was “active; positive”, the mutagenic call [5] was “active; positive” and the mutagenic call (Species/Cell Type: Saccharomyces cerevisiae, Assay Type: Mitotic recombination or gene conversion, Assay Code: YEC+, Evaluation Type: Evaluation A (Pre-1980)) was “active; positive”.

`Cc1ccc(N)cc1N` was tested, and the mutagenic call [4] was “active; positive”, the mutagenic call (Species/Cell Type: Mouse, Sex: Male, Assay Type: Sperm morphology, Assay Code: SPI-, Evaluation Type: Evaluation A (Pre-1980)) was “inactive; negative” and the mutagenic call (Species/Cell Type: Neurospora crassa, Assay Type: Aneuploidy, chromosome aberrations, Assay Code: NEN-, Evaluation Type: Evaluation A (Pre-1980)) was “inactive; negative”. The call (Species/Cell Type: Nonhuman, Assay Type: In vivo carcinogenicity studies, Assay Code: CCG+, Evaluation Type: Evaluation A (Pre-1980)) was “active; positive”, the mutagenic call (Species/Cell Type: Nonhuman, Assay Type: Sister-chromatid exchange (SCE) in vivo, Assay Code: SC3+, Evaluation Type: Evaluation B (Post-1980)) was “active; positive” and the mutagenic call [1] was “active; positive”. For the same molecule, the mutagenic call (Species/Cell Type: Syrian hamster embryo (SHE) cells, Assay Type: Cell transformation, clonal assay, Assay Code: CTCT, Evaluation Type: Evaluation A (Pre-1980)) was “no conclusion”.

For `CCC(=O)N(C)N=O`, the mutagenic call (Species/Cell Type: Saccharomyces cerevisiae, Assay Type: Reverse gene mutation, Assay Code: YER+, Evaluation Type: Evaluation A (Pre-1980)) was “active; positive”.

In the case of `OCCc1ccccc1`, the mutagenic call (Species/Cell Type: Human lymphocytes, Assay Type: Sister-chromatid exchange (SCE) in vitro, Assay Code: SCLT, Evaluation Type: Evaluation B (Post-1980)) is reported as “no conclusion” and the mutagenic call [2] is reported as “no conclusion”.

For `C#C[C@]1(O)CC[C@H]2[C@@H]3CCc4cc(OC)ccc4[C@H]3CC[C@@]21C` (tested in a mixture with another compound), the mutagenic call (Species/Cell Type: Human, Sex: Male, Assay Type: Sperm morphology, Assay Code: SPH+, Evaluation Type: Evaluation A (Pre-1980)) was “active; positive”.

For `Nc1ccc2nc[nH]c2c1`, the mutagenic call (Species/Cell Type: Aspergillus nidulans, Assay Type: Aneuploidy, chromosome aberrations, Assay Code: ASN-, Evaluation Type: Evaluation A (Pre-1980)) was “inactive; negative”.
